{
  "source": "PubChem BioAssay (NCI)",
  "experiment_in_all_cases": "NCI anticancer screen, dose series, 48 h",
  "key": {"NCI-H460 lung": {"test_system": "NCI-H460 lung"}, "HCT-116 colon": {"test_system": "HCT-116 colon"}, "DMS 114 small cell lung": {"test_system": "DMS 114 small cell lung"}, "CCRF-CEM leukemia": {"test_system": "CCRF-CEM leukemia"}, "MDA-MB-435": {"test_system": "MDA-MB-435"}, "OVCAR-3 ovarian": {"test_system": "OVCAR-3 ovarian"}, "HL-60(TB) leukemia": {"test_system": "HL-60(TB) leukemia"}, "SK-OV-3 ovarian": {"test_system": "SK-OV-3 ovarian"}, "OVCAR-5 ovarian": {"test_system": "OVCAR-5 ovarian"}, "SK-MEL-28 melanoma": {"test_system": "SK-MEL-28 melanoma"}, "SK-MEL-2 melanoma": {"test_system": "SK-MEL-2 melanoma"}, "OVCAR-8 ovarian": {"test_system": "OVCAR-8 ovarian"}, "TK-10 renal": {"test_system": "TK-10 renal"}, "PC-3 prostate": {"test_system": "PC-3 prostate"}, "UACC-62 melanoma": {"test_system": "UACC-62 melanoma"}, "NCI-H226 lung": {"test_system": "NCI-H226 lung"}, "HOP-92 NSCLC": {"test_system": "HOP-92 NSCLC"}, "HS 578T breast": {"test_system": "HS 578T breast"}, "RPMI-8226 leukemia": {"test_system": "RPMI-8226 leukemia"}, "SNB-78 CNS": {"test_system": "SNB-78 CNS"}, "M19-MEL melanoma": {"test_system": "M19-MEL melanoma"}, "HT29 colon": {"test_system": "HT29 colon"}, "EKVX NSCLC": {"test_system": "EKVX NSCLC"}, "SN12C renal": {"test_system": "SN12C renal"}, "SF-268 CNS": {"test_system": "SF-268 CNS"}, "SR leukemia": {"test_system": "SR leukemia"}, "KM12 colon": {"test_system": "KM12 colon"}, "COLO 205 colon": {"test_system": "COLO 205 colon"}, "MALME-3M melanoma": {"test_system": "MALME-3M melanoma"}, "LXFL 529 NSCLC": {"test_system": "LXFL 529 NSCLC"}, "MDA-N": {"test_system": "MDA-N"}, "HOP-18 NSCLC": {"test_system": "HOP-18 NSCLC"}, "A498 renal": {"test_system": "A498 renal"}, "DU-145 prostate": {"test_system": "DU-145 prostate"}, "HCC-2998 colon": {"test_system": "HCC-2998 colon"}, "SNB-75 CNS": {"test_system": "SNB-75 CNS"}, "DMS 273 small cell lung": {"test_system": "DMS 273 small cell lung"}, "K-562 leukemia": {"test_system": "K-562 leukemia"}, "KM20L2 colon": {"test_system": "KM20L2 colon"}, "SF-539 CNS": {"test_system": "SF-539 CNS"}, "RXF 393 renal": {"test_system": "RXF 393 renal"}, "LOX IMVI melanoma": {"test_system": "LOX IMVI melanoma"}, "HOP-62 NSCLC": {"test_system": "HOP-62 NSCLC"}, "SW-620 colon": {"test_system": "SW-620 colon"}, "T-47D breast": {"test_system": "T-47D breast"}, "NCI-H522 lung": {"test_system": "NCI-H522 lung"}, "MOLT-4 leukemia": {"test_system": "MOLT-4 leukemia"}, "ACHN renal": {"test_system": "ACHN renal"}, "SK-MEL-5 melanoma": {"test_system": "SK-MEL-5 melanoma"}, "SNB-19 CNS": {"test_system": "SNB-19 CNS"}, "UO-31 renal": {"test_system": "UO-31 renal"}, "SF-295 CNS": {"test_system": "SF-295 CNS"}, "M14 melanoma": {"test_system": "M14 melanoma"}, "HCT-15 colon": {"test_system": "HCT-15 colon"}, "U251 CNS": {"test_system": "U251 CNS"}, "XF 498 CNS": {"test_system": "XF 498 CNS"}, "NCI/ADR-RES ovarian": {"test_system": "NCI/ADR-RES ovarian"}, "A549 NSCLC": {"test_system": "A549 NSCLC"}, "MDA-MB-231 breast": {"test_system": "MDA-MB-231 breast"}, "UACC-257 melanoma": {"test_system": "UACC-257 melanoma"}, "CAKI-1 renal": {"test_system": "CAKI-1 renal"}, "IGROV1 ovarian": {"test_system": "IGROV1 ovarian"}, "DLD-1 colon": {"test_system": "DLD-1 colon"}, "NCI-H23 lung": {"test_system": "NCI-H23 lung"}, "RXF-631 renal": {"test_system": "RXF-631 renal"}, "BT-549 breast": {"test_system": "BT-549 breast"}, "MCF7 breast": {"test_system": "MCF7 breast"}, "OVCAR-4 ovarian": {"test_system": "OVCAR-4 ovarian"}, "786-0 renal": {"test_system": "786-0 renal"}},
  "note": "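Each compound was tested at five concentrations against cells in 96-well plates for 48 hours. TGI marks complete inhibition of growth.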",
  "data": [
    {"smiles": "CCOC(=O)CN1C(=O)c2cc([N+](=O)[O-])cc3cc([N+](=O)[O-])cc(c23)C1=O", "values": [
      {"measurement": "TGI", "setting": "NCI-H460 lung", "result": "> 100", "unit": "µM"},
      {"measurement": "TGI", "setting": "HCT-116 colon", "result": "> 100", "unit": "µM"},
      {"measurement": "TGI", "setting": "DMS 114 small cell lung", "result": "> 100", "unit": "µM"},
      {"measurement": "TGI", "setting": "CCRF-CEM leukemia", "result": 23.2, "unit": "µM"},
      {"measurement": "TGI", "setting": "MDA-MB-435", "result": "> 100", "unit": "µM"},
      {"measurement": "TGI", "setting": "OVCAR-3 ovarian", "result": "> 100", "unit": "µM"},
      {"measurement": "TGI", "setting": "HL-60(TB) leukemia", "result": 8.99, "unit": "µM"},
      {"measurement": "TGI", "setting": "SK-OV-3 ovarian", "result": "> 100", "unit": "µM"},
      {"measurement": "TGI", "setting": "OVCAR-5 ovarian", "result": "> 100", "unit": "µM"},
      {"measurement": "TGI", "setting": "SK-MEL-28 melanoma", "result": "> 100", "unit": "µM"},
      {"measurement": "TGI", "setting": "SK-MEL-2 melanoma", "result": "> 62.3", "unit": "µM"},
      {"measurement": "TGI", "setting": "OVCAR-8 ovarian", "result": "> 100", "unit": "µM"},
      {"measurement": "TGI", "setting": "TK-10 renal", "result": "> 100", "unit": "µM"},
      {"measurement": "TGI", "setting": "PC-3 prostate", "result": "> 100", "unit": "µM"},
      {"measurement": "TGI", "setting": "UACC-62 melanoma", "result": "> 100", "unit": "µM"},
      {"measurement": "TGI", "setting": "NCI-H226 lung", "result": "> 100", "unit": "µM"},
      {"measurement": "TGI", "setting": "HOP-92 NSCLC", "result": "> 100", "unit": "µM"},
      {"measurement": "TGI", "setting": "HS 578T breast", "result": "> 100", "unit": "µM"},
      {"measurement": "TGI", "setting": "RPMI-8226 leukemia", "result": "> 100", "unit": "µM"},
      {"measurement": "TGI", "setting": "SNB-78 CNS", "result": "> 97.1", "unit": "µM"},
      {"measurement": "TGI", "setting": "M19-MEL melanoma", "result": "> 100", "unit": "µM"},
      {"measurement": "TGI", "setting": "HT29 colon", "result": "> 100", "unit": "µM"},
      {"measurement": "TGI", "setting": "EKVX NSCLC", "result": "> 100", "unit": "µM"},
      {"measurement": "TGI", "setting": "SN12C renal", "result": "> 100", "unit": "µM"},
      {"measurement": "TGI", "setting": "SF-268 CNS", "result": "> 94.6", "unit": "µM"},
      {"measurement": "TGI", "setting": "SR leukemia", "result": 30.7, "unit": "µM"},
      {"measurement": "TGI", "setting": "KM12 colon", "result": "> 100", "unit": "µM"},
      {"measurement": "TGI", "setting": "COLO 205 colon", "result": "> 100", "unit": "µM"},
      {"measurement": "TGI", "setting": "MALME-3M melanoma", "result": "> 100", "unit": "µM"},
      {"measurement": "TGI", "setting": "LXFL 529 NSCLC", "result": "> 100", "unit": "µM"},
      {"measurement": "TGI", "setting": "MDA-N", "result": "> 100", "unit": "µM"},
      {"measurement": "TGI", "setting": "HOP-18 NSCLC", "result": "> 100", "unit": "µM"},
      {"measurement": "TGI", "setting": "A498 renal", "result": "> 100", "unit": "µM"},
      {"measurement": "TGI", "setting": "DU-145 prostate", "result": "> 100", "unit": "µM"},
      {"measurement": "TGI", "setting": "HCC-2998 colon", "result": "> 100", "unit": "µM"},
      {"measurement": "TGI", "setting": "SNB-75 CNS", "result": "> 100", "unit": "µM"},
      {"measurement": "TGI", "setting": "DMS 273 small cell lung", "result": "> 100", "unit": "µM"},
      {"measurement": "TGI", "setting": "K-562 leukemia", "result": "> 100", "unit": "µM"},
      {"measurement": "TGI", "setting": "KM20L2 colon", "result": "> 100", "unit": "µM"},
      {"measurement": "TGI", "setting": "SF-539 CNS", "result": 84.3, "unit": "µM"},
      {"measurement": "TGI", "setting": "RXF 393 renal", "result": 83, "unit": "µM"},
      {"measurement": "TGI", "setting": "LOX IMVI melanoma", "result": "> 100", "unit": "µM"},
      {"measurement": "TGI", "setting": "HOP-62 NSCLC", "result": "> 100", "unit": "µM"},
      {"measurement": "TGI", "setting": "SW-620 colon", "result": "> 100", "unit": "µM"},
      {"measurement": "TGI", "setting": "T-47D breast", "result": "> 100", "unit": "µM"},
      {"measurement": "TGI", "setting": "NCI-H522 lung", "result": 46.3, "unit": "µM"},
      {"measurement": "TGI", "setting": "MOLT-4 leukemia", "result": "> 64.9", "unit": "µM"},
      {"measurement": "TGI", "setting": "ACHN renal", "result": "> 100", "unit": "µM"},
      {"measurement": "TGI", "setting": "SK-MEL-5 melanoma", "result": "> 100", "unit": "µM"},
      {"measurement": "TGI", "setting": "SNB-19 CNS", "result": "> 100", "unit": "µM"},
      {"measurement": "TGI", "setting": "UO-31 renal", "result": "> 100", "unit": "µM"},
      {"measurement": "TGI", "setting": "SF-295 CNS", "result": "> 100", "unit": "µM"},
      {"measurement": "TGI", "setting": "M14 melanoma", "result": "> 100", "unit": "µM"},
      {"measurement": "TGI", "setting": "HCT-15 colon", "result": "> 100", "unit": "µM"},
      {"measurement": "TGI", "setting": "U251 CNS", "result": "> 100", "unit": "µM"},
      {"measurement": "TGI", "setting": "XF 498 CNS", "result": "> 100", "unit": "µM"},
      {"measurement": "TGI", "setting": "NCI/ADR-RES ovarian", "result": "> 100", "unit": "µM"},
      {"measurement": "TGI", "setting": "A549 NSCLC", "result": "> 100", "unit": "µM"},
      {"measurement": "TGI", "setting": "MDA-MB-231 breast", "result": "> 100", "unit": "µM"},
      {"measurement": "TGI", "setting": "UACC-257 melanoma", "result": "> 100", "unit": "µM"},
      {"measurement": "TGI", "setting": "CAKI-1 renal", "result": "> 100", "unit": "µM"},
      {"measurement": "TGI", "setting": "IGROV1 ovarian", "result": "> 100", "unit": "µM"},
      {"measurement": "TGI", "setting": "DLD-1 colon", "result": "> 100", "unit": "µM"},
      {"measurement": "TGI", "setting": "NCI-H23 lung", "result": "> 100", "unit": "µM"},
      {"measurement": "TGI", "setting": "RXF-631 renal", "result": "> 100", "unit": "µM"},
      {"measurement": "TGI", "setting": "BT-549 breast", "result": "> 100", "unit": "µM"},
      {"measurement": "TGI", "setting": "MCF7 breast", "result": "> 100", "unit": "µM"},
      {"measurement": "TGI", "setting": "OVCAR-4 ovarian", "result": "> 100", "unit": "µM"},
      {"measurement": "TGI", "setting": "786-0 renal", "result": "> 100", "unit": "µM"}
    ]}
  ]
}
